From ChEMBL document CHEMBL4476874, “Compounds for the modulation of myc activity” (2018)

Legend:
NCI-H2171 = assay: Antiproliferative activity against human NCI-H2171 cells after 72 hrs by ATPlite assay; type: functional, cell-based; details: NCI-H2171, 72 h
[1] = biological target: Myc proto-oncogene protein (Homo sapiens, UniProt P01106); assay: Inhibition of human c-Myc assessed as reduction in c-Myc/Max/Ebox DNA complex formation using pre-formed complex of c-Myc and biotinylated DNA containing single Ebox-sequence followed by compound addition and further addition of his6-tagged c-Max and incubated for 2 hrs by AlphaScreen assay
Chain of Myc proto-oncogene protein (P01106 whole entry): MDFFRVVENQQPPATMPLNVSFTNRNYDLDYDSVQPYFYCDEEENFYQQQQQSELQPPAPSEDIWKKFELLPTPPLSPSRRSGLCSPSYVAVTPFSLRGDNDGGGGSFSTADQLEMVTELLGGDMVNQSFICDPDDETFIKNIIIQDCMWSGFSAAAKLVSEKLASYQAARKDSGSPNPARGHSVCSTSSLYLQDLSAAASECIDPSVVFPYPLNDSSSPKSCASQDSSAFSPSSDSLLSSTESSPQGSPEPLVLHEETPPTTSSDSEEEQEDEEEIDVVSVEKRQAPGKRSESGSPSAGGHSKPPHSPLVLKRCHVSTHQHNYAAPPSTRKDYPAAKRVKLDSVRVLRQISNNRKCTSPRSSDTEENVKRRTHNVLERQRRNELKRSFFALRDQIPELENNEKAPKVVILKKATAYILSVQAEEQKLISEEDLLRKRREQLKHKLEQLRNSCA

Compound | IC50 (NCI-H2171) [nM] | IC50 [1] [nM]
COCCNCCC(=O)Nc1sc2c(c1-c1nc3ccccc3s1)CCN[C@@H]2C | < 300 | < 300
CCOc1ccc(-c2ccc3sc(-c4c(NC(=O)CCNCCOC)sc5c4CCNC5)nc3c2)cn1 | < 300 | 300 to 1000
CC(C)N1CCc2c(sc(NC(=O)CCNCCc3cccnc3)c2-c2nc3ccccc3s2)C1 | 300 to 1000 | 300 to 1000
COCCNCCC(=O)Nc1sc2c(c1-c1nc3cc(-c4ccc(F)nc4)ccc3s1)CCNC2 | 300 to 1000 | < 300
CNS(=O)(=O)c1cccc(-c2ccc3sc(-c4c(NC(=O)CCNCCOC)sc5c4CCNC5)nc3c2)c1 | < 300 | 300 to 1000
CCN(CC)CCC(=O)Nc1sc2c(c1-c1nc3ccccc3s1)CCNC2 | < 300 | 300 to 1000
CNCCC(=O)Nc1sc2c(c1-c1nc3ccccc3s1)CCN(C(C)C)C2 | < 300 | < 300
COCCNCCC(=O)Nc1sc2c(c1-c1nc3cc(-c4cnc(N)c(C(F)(F)F)c4)ccc3s1)CCNC2 | < 300 | 1000 to 10000
COCCNCCC(=O)Nc1sc2c(c1-c1nc3ccc(-c4cncnc4)cc3s1)CCNC2 | < 300 | 300 to 1000
COCCNCCC(=O)Nc1sc2c(c1-c1nc3ccccc3s1)CCN(C(C)C)C2 | 1000 to 10000 | 300 to 1000
COCCNCCC(=O)Nc1sc2c(c1-c1nc3cc(-c4cccnc4C)ccc3s1)CCNC2 | < 300 | 1000 to 10000
CCC(C)N(CCC(=O)Nc1sc2c(c1-c1nc3ccccc3s1)CCNC2)C(C)=O (centres undefined) | 1000 to 10000 | 1000 to 10000
COCCNCCC(=O)Nc1sc2c(c1-c1nc3cc(-c4cccc(NS(C)(=O)=O)c4)ccc3s1)CCNC2 | < 300 | 1000 to 10000
COCCNCCC(=O)Nc1sc2c(c1-c1nc3cc(-c4cccc(S(N)(=O)=O)c4)ccc3s1)CCNC2 | 300 to 1000 | 300 to 1000
COCCNCCC(=O)Nc1sc2c(c1-c1nc3cc(-c4ccnc(C(F)(F)F)c4)ccc3s1)CCNC2 | < 300 | 300 to 1000
COCCNCCC(=O)Nc1sc2c(c1-c1nc3cc(-c4c[nH]nc4C)ccc3s1)CCNC2 | 300 to 1000 | 300 to 1000
CC(C)NCCC(=O)Nc1sc2c(c1-c1nc3cc(-c4cccnc4)ccc3s1)CCNC2 | < 300 | < 300
COCCNCCC(=O)Nc1sc2c(c1-c1nc3ccc(-c4cnc(N)nc4)cc3s1)CCNC2 | < 300 | 300 to 1000
COCCNCCC(=O)Nc1sc2c(c1-c1nc3cc(-c4cnn(Cc5ccccc5)c4)ccc3s1)CCNC2 | < 300 | 1000 to 10000

Compound | IC50 (NCI-H2171) [nM] | IC50 [1] [nM]
COCCNCCC(=O)Nc1sc2c(c1-c1nc3ccc(-c4ccnc(N)c4)cc3s1)CCNC2 | < 300 | 300 to 1000
CC(C)NCCC(=O)N(C)c1sc2c(c1-c1nc3cc(-c4cnn(C)c4)ccc3s1)CCNC2 | 1000 to 10000 | > 10000
CSc1ccc2sc(-c3c(NC(=O)CCNC(C)C)sc4c3CCNC4)nc2c1 | < 300 | 300 to 1000
CNC(=O)Nc1ccc(-c2ccc3nc(-c4c(NC(=O)CCNCCOC)sc5c4CCNC5)sc3c2)cc1 | < 300 | 1000 to 10000
COCCNCCC(=O)Nc1sc2c(c1-c1nc3ccc(-c4cncc(N)c4)cc3s1)CCNC2 | < 300 | 300 to 1000
COCCNCCC(=O)Nc1sc2c(c1-c1nc3cc(-c4ccc(C)nc4)ccc3s1)CCNC2 | < 300 | 300 to 1000
CC(C)NCCC(=O)Nc1sc2c(c1-c1nc3cc(C4CC4)ccc3s1)CCNC2 | < 300 | 300 to 1000
CNS(=O)(=O)c1cccc(-c2ccc3nc(-c4c(NC(=O)CCNCCOC)sc5c4CCNC5)sc3c2)c1 | < 300 | 300 to 1000
COCCNCCC(=O)Nc1sc2c(c1-c1nc3c(-n4ccnc4C)cccc3s1)CCNC2 | < 300 | 300 to 1000
CC(C)NCCC(=O)Nc1sc2c(c1-c1nc3cc(Sc4ccccn4)ccc3s1)CCNC2 | < 300 | 1000 to 10000
Cc1noc(C)c1-c1ccc2sc(-c3c(NC(=O)CCNC(C)C)sc4c3CCNC4)nc2c1 | 300 to 1000 | 1000 to 10000
COCCNCCC(=O)Nc1sc2c(c1-c1nc3c(N4CC(O)C4)cccc3s1)CCNC2 | < 300 | < 300
CCN(CC)CCNCCC(=O)Nc1sc2c(c1-c1nc3ccccc3s1)CCN(C(C)C)C2 | 1000 to 10000 | 300 to 1000
CC(C)NCCC(=O)Nc1sc2c(c1-c1nc3cc(C4=CCN(S(C)(=O)=O)CC4)ccc3s1)CCNC2 | 300 to 1000 | < 300
CC(C)NCCC(=O)Nc1sc2c(c1-c1nc3cc(N4CCS(=O)(=O)CC4)ccc3s1)CCNC2 | < 300 | 300 to 1000
COCCNCCC(=O)Nc1sc2c(c1-c1nc3cc(-c4ccc(C(=O)N(C)C)cc4F)ccc3s1)CCNC2 | < 300 | 300 to 1000
CC(C)NCCC(=O)Nc1sc2c(c1-c1nc3cc(C4=CCN(S(=O)(=O)N(C)C)CC4)ccc3s1)CCNC2 | < 300 | 300 to 1000
CC(C)NCCC(=O)Nc1sc2c(c1-c1nc3ccccc3s1)CC1CCC2N1 (centres undefined) | < 300 | 1000 to 10000
